Measurements reported in patent publication US20080262228A1, “Metabolites of 5-fluoro-8- quinoline and methods of preparation and uses thereof” (Wyeth, priority 2006, published 2008).
Values joined by “and” are separate entries in the source; they are usually repeats but may differ in a detail not shown here. Equal values may be shown once. Read-outs that look alike come from different tables or passages of the source. Marks after values point to notes of the source that are not given here.

Experiments:
[1] = Metabolite characterization in cryopreserved hepatocytes; settings: hepatocyte incubations, 20 μM; R, rat; D, dog; H, human; Media = decomposition product observed in media control
Method: Pooled male rat, dog, and mixed male and female human cryopreserved hepatocytes were used in this study. The cryopreserved hepatocytes (two vials from each species; three to five million viable cells per vial) were thawed in a 37° C. water bath with gentle shaking until the ice was almost melted. The suspensions from the two individual vials of the same species were immediately transferred to a 50 mL centrifuge tube containing pre-warmed thawing media at 37° C. with gentle handshaking to prevent the cells from settling. The cell suspension was centrifuged at 50 g for 5 min at 4° C. Supernatants were discarded and the pellets were resuspended in pre-warmed incubation media (8 mL) at 37° C. […] [^14C]COMPOUND I (20 μM) was incubated in a 12-well plate containing hepatocyte suspensions at 1.0 mL per well in duplicate (≧1 million viable cells/well) at 37° C. for 1 or 4 hr in the presence of 5% CO2:95% O2. Control incubations without hepatocytes were also run under the same conditions. Positive controls containing [^14C]7-ethoxycoumarin (100 μM) were also incubated under the same conditions, but only for 1 hr. At the end of the incubations, reactions were stopped by adding acetonitrile with 2% acetic acid (1 mL), mixed for 10 min, followed by centrifugation at 4000 rpm for 10 min at 4° C. Aliquots (50 μL) of supernatants were analyzed by HPLC with UV and radioactivity flow detection for metabolite profiling, and by LC/MS for metabolite identification as described in below. To determine extraction recovery, aliquots (20 μL) of supernatants were analyzed for radioactivity content utilizing a Packard Tri-Carb Model 3100 TR liquid scintillation counter and 5 mL of Ultima Gold.
The HPLC system used for mass spectrometric analysis was a Waters Alliance model 2695 HPLC system (Waters Corp). It was equipped with a built-in autosampler and a model 996 diode array UV detector. The UV detector was set to monitor 210-400 nm. The HPLC conditions were the same as those described hereinabove with the following exceptions. […]

[2] = In vivo metabolism of [14C]COMPOUND I in Sprague-Dawley rats, single oral 5 mg/kg dose; parameters: species or system rat; settings: for Chromatographic Distribution of Radioactivity in Pooled Plasma Samples: 5 mg/kg oral [14C]COMPOUND I; for percent of total brain radioactivity: pooled brain
Method: Dose preparation, animal dosing, and specimen collection were performed at Wyeth Research, Collegeville, Pa. The vehicle contained 2% (w/v) polysorbate 80, NF and 0.5% (w/v) methylcellulose (4000 cps) in water. [^14C]COMPOUND I trisuccinate salt (36.6 mg) and non-labeled COMPOUND I trisuccinate salt (26.7 mg) were dissolved in 1 mL of ethanol and suspended in 35 mL of the vehicle with stirring. The target [^14C]COMPOUND I concentration was approximately 1 mg/mL as free base and 70 μCi/mL with a target specific activity of 70 μCi/mg. Three pre- and post-dose aliquots (100 μL) were taken for the determination of radiochemical purity, drug and radioactivity concentrations and specific activity (see below).
Male rats weighing from 323 to 354 g and female rats weighing from 270 to 317 g at the time of dosing were purchased from Charles River Laboratories (Wilmington, Mass.). Non-fasted rats were given a single 5 mg/kg (˜350 μCi/kg) dose of [^14C]COMPOUND I at a volume of 5.0 mL/kg via intragastric gavage. Three rats were dosed for each time point. Animals were provided Purina rat chow and water ad libitum, and were kept individually in metabolism cages.
Blood samples were collected at 1, 3, 6 and 24 hr from male rats and at 1 and 3 hr from female rats after dose administration by cardiac puncture into tubes containing EDTA as the anticoagulant and placing them on ice. Triplicate aliquots (50 μL) of whole blood were removed and plasma was immediately obtained from the remaining blood by centrifugation at 4° C. Whole brain samples were collected after saline perfusion at 1, 3, 6 and 24 hr post-dose from male rats and at 1 and 3 hr post-dose from female rats. Urine samples were collected on dry ice from male rats at intervals of 0-6 and 6-24 hr post-dose. Feces were collected from male rats at 0-24 hr post-dose at room temperature. The biological specimens and aliquots of the dose suspension were stored at approximately −70° C. until analysis.
Triplicate aliquots of diluted dose (20 μL), dose fractions (10 μL), and plasma (50 μL) and urine (100 μL) from individual rats were analyzed for radioactivity concentrations. Radioactivity determinations were made with a Tri-Carb Model 3100 TR liquid scintillation counter (LSC) (Perkin Elmer) using 5 mL of Ultima Gold as the scintillation fluid.
Brain and fecal samples from individual rats were weighed and homogenized in water at a volume-to-weight ratio of about 3:1 and 5:1, respectively, with a Polytron PT homogenizer at ice-cold temperature. Duplicate aliquots of blood (50 μL), brain homogenates (0.2 g) and fecal homogenates (0.2 g) were placed on Combusto-cones with Combusto-pads and allowed to dry overnight. Samples were combusted with a model 307 Tri-Carb Sample Oxidizer, equipped with an Oximate-80 Robotic Automatic Sampler (Perkin Elmer). The liberated ^14CO2 was trapped with Carbo-Sorb E carbon dioxide absorber, mixed with PermaFluor® E^+ liquid scintillation cocktail, and counted in a Tri-Carb Model 3100 TR/LL liquid scintillation counter (Perkin Elmer).
Plasma samples were pooled by equal volumes from three animals at each time point (1, 3, 6 and 24 hr for males; 1 and 3 hr for females). Aliquots of 2 mL of pooled plasma were mixed with 2 mL of acetonitrile, placed on ice for about 10 min, and then centrifuged at 4° C. The supernatant was transferred to a clean tube. The protein pellets were extracted two more times with 4 mL of acetonitrile. The supernatants from precipitation and extraction of each sample were pooled, mixed, and evaporated at 22° C. under nitrogen in a TurboVap LV evaporator (Caliper Life Sciences, Hopkinton, Mass.) to about 1.0 mL. The concentrated extract was centrifuged, the supernatant volume measured and the extraction efficiency was determined by analyzing duplicate 10 μL aliquots for radioactivity concentrations.

[3] = female, Sprague-Dawley, rat, brain and plasma, po, 5 mg/kg, read-out: Brain/Plasma COMPOUND I Ratio
[4] = male, Sprague-Dawley, rat, brain and plasma, po, 5 mg/kg, read-out: Brain/Plasma COMPOUND I Ratio
[5] = female rats, 1 hr, 5 mg/kg oral, individual rats, 5 mg/kg
[6] = female rats, 1 hr, 5 mg/kg oral, mean ± SD, 5 mg/kg
[7] = female rats, 3 hr, 5 mg/kg oral, individual rats, 5 mg/kg
[8] = female rats, 3 hr, 5 mg/kg oral, mean ± SD, 5 mg/kg
[9] = male rats, 1 hr, 5 mg/kg oral, individual rats, 5 mg/kg
[10] = male rats, 1 hr, 5 mg/kg oral, mean ± SD, 5 mg/kg
[11] = male rats, 3 hr, 5 mg/kg oral, individual rats, 5 mg/kg
[12] = male rats, 3 hr, 5 mg/kg oral, mean ± SD, 5 mg/kg
[13] = male rats, 6 hr, 5 mg/kg oral, individual rats, 5 mg/kg
[14] = male rats, 6 hr, 5 mg/kg oral, mean ± SD, 5 mg/kg
[15] = male rats, 24 hr, 5 mg/kg oral, individual rats, 5 mg/kg
[16] = male rats, 24 hr, 5 mg/kg oral, mean ± SD, 5 mg/kg

COc1cc(N2CCN(C3CCN(c4ccc(F)c5cccnc45)CC3)CC2)c2ncccc2c1 [COMPOUND I, 5-Fluoro-8-{4-[4-(6-methoxyquinolin-8-yl)piperazin-1-yl]piperidin-1-yl}quinoline]
Source [1]: All
Kp ([2]; Sprague-Dawley, rat, brain and plasma, rats, 5 mg/kg oral, read-out: brain-to-plasma ratios of COMPOUND I concentrations): 0.47 to 0.85
concentration at 1 hr ([2]; Sprague-Dawley, rat, female rats, 1 hr, 5 mg/kg oral, mean brain radioactivity x percentage of COMPOUND I in pooled sample, read-out: Brain COMPOUND I Concentrations): 106 ng/g
concentration at 3 hr ([2]; Sprague-Dawley, rat, female rats, 3 hr, 5 mg/kg oral, mean brain radioactivity x percentage of COMPOUND I in pooled sample, read-out: Brain COMPOUND I Concentrations): 34.7 ng/g
concentration at 1 hr ([2]; Sprague-Dawley, rat, male rats, 1 hr, 5 mg/kg oral, mean brain radioactivity x percentage of COMPOUND I in pooled sample, read-out: Brain COMPOUND I Concentrations): 40.9 ng/g
concentration at 3 hr ([2]; Sprague-Dawley, rat, male rats, 3 hr, 5 mg/kg oral, mean brain radioactivity x percentage of COMPOUND I in pooled sample, read-out: Brain COMPOUND I Concentrations): 15.9 ng/g
concentration at 6 hr ([2]; Sprague-Dawley, rat, male rats, 6 hr, 5 mg/kg oral, mean brain radioactivity x percentage of COMPOUND I in pooled sample, read-out: Brain COMPOUND I Concentrations): 10 ng/g
Chromatographic Distribution of Radioactivity in Pooled Plasma Samples ([2]; female rats, 1 hr): 16.4%
percent of total brain radioactivity ([2]; female rats, 1 hr, 5 mg/kg oral): 79.5%
Chromatographic Distribution of Radioactivity in Pooled Plasma Samples ([2]; female rats, 3 hr): 14.6%
percent of total brain radioactivity ([2]; female rats, 3 hr, 5 mg/kg oral): 70.7%
Kp at 1 h [2, 3]: 0.77
Kp at 3 h [2, 3]: 0.58
Chromatographic Distribution of Radioactivity in Pooled Plasma Samples ([2]; male rats, 1 hr): 16.9%
percent of total brain radioactivity ([2]; male rats, 1 hr, 5 mg/kg oral): 80.3%
Chromatographic Distribution of Radioactivity in Pooled Plasma Samples ([2]; male rats, 3 hr): 15.5%
percent of total brain radioactivity ([2]; male rats, 3 hr, 5 mg/kg oral): 63.8%
Chromatographic Distribution of Radioactivity in Pooled Plasma Samples ([2]; male rats, 6 hr): 8.7%
percent of total brain radioactivity ([2]; male rats, 6 hr, 5 mg/kg oral): 60.5%
percent of total plasma radioactivity ([2]; male rats, from 1 to 6 hr post-dose, 5 mg/kg oral): 8.7-16.9%
percent of total radioactivity in the fecal extract ([2]; male rats, pooled 0-24 hr feces, 5 mg/kg oral): 8.1%
Kp at 1 h [2, 4]: 0.47
Kp at 3 h [2, 4]: 0.54
Kp at 6 h [2, 4]: 0.85
Source ([2]; rats, 5 mg/kg oral, P, plasma, F, feces, B, brain): P, B, F

COc1cc(N2CCN(C3CCN(c4ccc(F)c5cccnc45)CC3)CC2)c2ncccc2c1 [[^14C]COMPOUND I, [piperazine-^14C(U)]-5-fluoro-8-(4-(4-(6-methoxyquinolin-8-yl)piperazin-1-yl)piperidin-1-yl)quinoline trisuccinate]
Concentration of Total Radioactivity in Plasma [2, 5]: 1274 ng equivalents/mL and 854 ng equivalents/mL and 383 ng equivalents/mL
Concentration of Total Radioactivity in Whole Blood [2, 5]: 815 ng equivalents/mL and 549 ng equivalents/mL and 536 ng equivalents/mL
Brain Radioactivity Concentrations ([2]; female rats, 1 hr, 5 mg/kg oral, individual, 5 mg/kg): 149 ng equivalents/g and 121 ng equivalents/g and 128 ng equivalents/g
Concentration of Total Radioactivity in Whole Blood ([2]; female rats, 1 hr, 5 mg/kg oral, mean ± SD): 633 ± 157 ng equivalents/mL
Brain Radioactivity Concentrations [2, 6]: 133 ng equivalents/g and 133 ± 15 ng equivalents/g
Concentration of Total Radioactivity in Plasma [2, 6]: 837 ng equivalents/mL and 837 ± 446 ng equivalents/mL
Concentration of Total Radioactivity in Plasma [2, 7]: 504 ng equivalents/mL and 298 ng equivalents/mL and 436 ng equivalents/mL
Concentration of Total Radioactivity in Whole Blood [2, 7]: 326 ng equivalents/mL and 206 ng equivalents/mL and 287 ng equivalents/mL
Brain Radioactivity Concentrations ([2]; female rats, 3 hr, 5 mg/kg oral, individual, 5 mg/kg): 54 ng equivalents/g and 30 ng equivalents/g and 61 ng equivalents/g
Concentration of Total Radioactivity in Whole Blood ([2]; female rats, 3 hr, 5 mg/kg oral, mean ± SD): 273 ± 61.2 ng equivalents/mL
Brain Radioactivity Concentrations [2, 8]: 49 ng equivalents/g and 49 ± 16 ng equivalents/g
Concentration of Total Radioactivity in Plasma [2, 8]: 412 ng equivalents/mL and 412 ± 105 ng equivalents/mL
dose excreted in urine ([2]; male rats, 0-24 hr urine, 5 mg/kg oral): 3.6%
Concentration of Total Radioactivity in Plasma [2, 9]: 366 ng equivalents/mL and 295 ng equivalents/mL and 887 ng equivalents/mL
Concentration of Total Radioactivity in Whole Blood [2, 9]: 228 ng equivalents/mL and 169 ng equivalents/mL and 251 ng equivalents/mL
Brain Radioactivity Concentrations ([2]; male rats, 1 hr, 5 mg/kg oral, individual, 5 mg/kg): 48 ng equivalents/g and 42 ng equivalents/g and 63 ng equivalents/g
Concentration of Total Radioactivity in Whole Blood ([2]; male rats, 1 hr, 5 mg/kg oral, mean ± SD): 216 ± 42.3^a ng equivalents/mL
Brain Radioactivity Concentrations [2, 10]: 51 ng equivalents/g and 51 ± 11^c ng equivalents/g
Concentration of Total Radioactivity in Plasma [2, 10]: 516 ng equivalents/mL and 516 ± 323 ng equivalents/mL
Concentration of Total Radioactivity in Plasma [2, 11]: 172 ng equivalents/mL and 256 ng equivalents/mL and 144 ng equivalents/mL
Concentration of Total Radioactivity in Whole Blood [2, 11]: 115 ng equivalents/mL and 166 ng equivalents/mL and 98.6 ng equivalents/mL
Brain Radioactivity Concentrations ([2]; male rats, 3 hr, 5 mg/kg oral, individual, 5 mg/kg): 22 ng equivalents/g and 31 ng equivalents/g and 23 ng equivalents/g
Concentration of Total Radioactivity in Whole Blood ([2]; male rats, 3 hr, 5 mg/kg oral, mean ± SD): 127 ± 35.1^a ng equivalents/mL
Brain Radioactivity Concentrations [2, 12]: 25 ng equivalents/g and 25 ± 4.9 ng equivalents/g
Concentration of Total Radioactivity in Plasma [2, 12]: 191 ng equivalents/mL and 191 ± 58.3^a ng equivalents/mL
Concentration of Total Radioactivity in Plasma [2, 13]: 112 ng equivalents/mL and 114 ng equivalents/mL and 163 ng equivalents/mL
Concentration of Total Radioactivity in Whole Blood [2, 13]: 77.2 ng equivalents/mL and 75.5 ng equivalents/mL and 118 ng equivalents/mL
Brain Radioactivity Concentrations ([2]; male rats, 6 hr, 5 mg/kg oral, individual, 5 mg/kg): 15 ng equivalents/g and 13 ng equivalents/g and 19 ng equivalents/g
Concentration of Total Radioactivity in Whole Blood ([2]; male rats, 6 hr, 5 mg/kg oral, mean ± SD): 90.2 ± 24.1 ng equivalents/mL
Brain Radioactivity Concentrations [2, 14]: 16 ng equivalents/g and 16 ± 3.2 ng equivalents/g
Concentration of Total Radioactivity in Plasma [2, 14]: 130 ng equivalents/mL and 130 ± 28.9 ng equivalents/mL
Concentration of Total Radioactivity in Plasma [2, 15]: 23.3 ng equivalents/mL and 24.2 ng equivalents/mL and 26.7 ng equivalents/mL
Concentration of Total Radioactivity in Whole Blood [2, 15]: 22.8 ng equivalents/mL and 26.2 ng equivalents/mL and 28.0 ng equivalents/mL
Brain Radioactivity Concentrations ([2]; male rats, 24 hr, 5 mg/kg oral, individual, 5 mg/kg): 7.1 ng equivalents/g and 5.3 ng equivalents/g and 6.1 ng equivalents/g
Concentration of Total Radioactivity in Whole Blood ([2]; male rats, 24 hr, 5 mg/kg oral, mean ± SD): 25.7 ± 2.64 ng equivalents/mL
Brain Radioactivity Concentrations [2, 16]: 6.2 ng equivalents/g and 6.2 ± 0.9 ng equivalents/g
Concentration of Total Radioactivity in Plasma [2, 16]: 24.7 ng equivalents/mL and 24.7 ± 1.76 ng equivalents/mL
administered radioactivity recovered in feces ([2]; male rats, first 24 hr, 5 mg/kg oral, average): 81.9%
